Results published in article PMC12705620 (Frontiers in Pharmacology, 2025).
Bridge positions count the residues as written; N and C are the ends. Square brackets hold non-standard residues; d marks the D form. Peptide text beside a SMILES is read from it. I, II: the chains in the order shown. Dap = NC[C@H](N)C(=O)O; Ahx = NCCCCCC(=O)O

Experiments:
[1] = system: TNF-α production by dTHP-1 macrophages stimulated with LPS (E. coli O111:B4); assay: Endotoxin neutralization, LPS-stimulated macrophages; assay type: cell-based, human; details: LPS 5 ng/mL with 1 or 2 µM peptide, 4 h, serum-free RPMI, ELISA, versus NT
Protocol: (§1) The endotoxin-neutralizing capacity of the peptides was assessed by measuring tumor necrosis factor-alpha (TNF-α) production by dTHP-1 macrophages. dTHP-1 macrophages were stimulated with either lipopolysaccharide (LPS; E. coli O111:B4; 5 ng/mL, Sigma-Aldrich) or UV-inactivated S. aureus JAR060131 (MOI 2; as described in Section 5.2), in the presence or absence of one or 2 µM peptides. Cells were cultured in serum-free RPMI and incubated for 4 h at 37 °C with 5% CO2. Positive controls consisted of cells stimulated with LPS or UV-S. aureus without peptide treatment (no treatment, NT), and unstimulated cells served as negative controls. After stimulation, cell supernatants were collected, and cytokine levels of TNF-α were quantified using human ELISA kits (R&D Systems, USA) according to the manufacturer’s instructions. Each condition was tested in triplicate.

[2] = system: HaCaT human keratinocytes; assay: Cytotoxicity (WST-1 and LDH); assay type: cell-based
Protocol: (§2) Cells (5 × 10^5 cells/mL) were seeded in 96-well plates (100 μL/well; Thermo Scientific) and allowed to adhere for 24 h. After adhesion, monolayers were exposed to two-fold serial dilutions of the tetrameric and reference peptides (final concentrations: 60–0.05 µM) in fresh DMEM containing 2% (v/v) FBS, and incubated for 24 h at 37 °C in a humidified 5% CO2 atmosphere. Cell viability was assessed using the water-soluble tetrazolium salt (WST-1; Roche) assay, and membrane integrity was measured using the lactate dehydrogenase (LDH) release assay (Abcam), following manufacturer instructions. Absorbance was measured using the Synergy H1 microplate reader (Biotek). Results are expressed as percentages relative to untreated control (for WST-1) and positive lysis control (for LDH) and all experiments were performed in triplicate.

[3] = system: human skin fibroblast cells (BJ); assay: Cytotoxicity (WST-1 and LDH); assay type: cell-based
Protocol: as §2

[4] = system: primary human venous endothelial cells (HUVECs); assay: In vitro angiogenesis (tube formation) assay; assay type: cell-based; details: 4 h; for Number of tubular networks formed: 1 µM peptide, Matrigel, versus untreated control
Protocol: Primary human venous endothelial cells (HUVECs; CSC 2V0) were used to evaluate the in vitro angiogenic potential of peptides using a tube formation assay, adapted from Arnaoutova and Kleinman ([Arnaoutova and Kleinman, 2010]). Cells were cultured in low-serum endothelial cell growth medium 2 (2% v/v; Promo Cell). Briefly, 96-well plates were coated with 50 µL/well of phenol red-free, growth factor-reduced basement membrane matrix (Matrigel; Corning), and incubated at 37 °C for 1 h to allow gelation. […] Then, 100 µL of cell suspension (1.5 × 10^4 cells/well) was added to the Matrigel-coated wells in triplicate and incubated at 37 °C, 5% CO2 for 8 h. Tube formation was monitored using the IncuCyte S3 live-cell imaging system (Sartorius) with bright-field microscopy. Images were captured hourly, and the 4-h time point (corresponding to optimal tube formation) was used for analysis. The number of capillary-like structures was quantified using the “Angiogenesis Analyzer” plugin in ImageJ ([Carpentier et al., 2020]). Each peptide condition was tested in triplicate and repeated three times using different Matrigel batches to account for batch-to-batch variability.

[5] = system: S. aureus RN4220 (mCherry) in dTHP-1 macrophages; assay: Intracellular bacterial killing in macrophages; assay type: cell-based, Staphylococcus aureus; details: 24 h pre-treatment at 1 µM and 2 µM, MOI 2, CFU after lysis, versus no treatment
Protocol: Human monocytes (THP-1; TIB-202; ATCC) were cultured in RPMI 1,640 medium (Gibco) supplemented with 10% FBS. For differentiation into macrophage-like cells (dTHP-1), THP-1 monocytes were seeded in 96-well plates at 3 × 10^4 cells/well (100 µL) in RPMI supplemented with 50 ng/mL phorbol 12-myristate 13-acetate (PMA; Sigma-Aldrich), and incubated for 48 h. The protocol for intracellular killing was adapted from Tang et al. ([Tang et al., 2015]) with modifications. After differentiation, dTHP-1 cells were pre-treated with one or 2 µM peptide solutions in fresh RPMI for 24 h. Subsequently peptides were removed by washing three times with PBS. An mCherry-expressing S. aureus strain, prepared as described in Section 5.2, was used. This strain is efficiently internalized by macrophages ([Cuypers et al., 2024]). Bacteria were added to dTHP-1 cells at a multiplicity of infection (MOI) of 2:1 and incubated for 45 min at 37 °C with 5% CO2 for phagocytosis. Extracellular bacteria were then removed by washing the wells three times with 60 µL PBS, followed by a final wash with 200 µL PBS.dTHP-1 cells were either lysed immediately to quantify the number of intracellular bacteria, after phagocytosis (T = 0 h) or were incubated for 24 h (T = 24 h) in RPMI supplemented with 10 μg/mL gentamicin (Sigma-Aldrich) to inhibit extracellular bacterial growth (in both peptide-treated and control dTHP-1 cells). Internalized bacteria were quantified after lysing the cells with 0.025% Triton X-100 in PBS for 15 min. Lysates were serially diluted (both at 0 h and 24 h) and plated onto BA for CFU enumeration to assess intracellular bacterial survival.

[6] = system: Staphylococcus aureus JAR060131; assay type: cell-based; details: JAR060131, 18 h
Protocol: Bactericidal activity was assessed as previously described ([Breij et al., 2018]). Briefly, mid-logarithmic phase bacterial cultures were diluted in RPMI to 1 × 10^7 CFU/mL. For fungicidal assays, fungal cultures were prepared in RPMI supplemented with 1% glucose (Merck) and diluted to 2–5 × 10^5 CFU/mL. For each condition, 10 µL of the suspension was added to 90 µL of peptide-containing RPMI or RPMI supplemented with 50% (v/v) pooled human plasma (hereafter referred to as 50% plasma; final bacterial concentration 1 × 10^6 CFU/mL, final fungal concentration 2–5 × 10^4 CFU/mL. Human plasma from four healthy volunteers (Sanquin, Netherlands) was pooled, and stored at −20 °C until use. Peptides were tested similarly for fungicidal activity, after 18 h of incubation at 37 °C with shaking (120 rpm) under humidified conditions, bacterial and fungal survival was determined by plating 10 µL aliquots onto BA plates. Assays were performed in duplicate in round-bottom polypropylene microtiter plates (Costar) and repeated independently three times. Untreated controls included bacteria exposed to RPMI alone or RPMI with 50% plasma. Bactericidal and fungicidal activity was expressed as the lethal concentration 99.9% (LC99.9), defined as the lowest peptide concentration causing ≥99.9% reduction in numbers of CFU compared to the initial inoculum.

[7] = system: TNF-α production by dTHP-1 macrophages stimulated with UV-inactivated S. aureus JAR060131; assay: Endotoxin neutralization, UV-inactivated S. aureus-stimulated macrophages; assay type: cell-based; details: MOI 2 with 1 or 2 µM peptide, 4 h, ELISA, versus NT
Protocol: as §1

Row | Compound | Reduction of LPS-induced TNFα levels [1] | Cytotoxicity threshold (tolerance), WST-1 and LDH [2] [µM] | Cytotoxicity, LDH leakage [2] [µM] | Cytotoxicity, Metabolic activity [2] [µM] | Cytotoxicity threshold (tolerance), WST-1 and LDH [3] [µM] | Cytotoxicity, LDH leakage [3] [µM] | Cytotoxicity, Metabolic activity [3] [µM] | Number of tubular networks formed [4] | Concentration at which tube formation peaked ([4]; concentration series 0.5–3 µM) [µM] | Tube formation at 3 µM ([4]; concentration series 0.5–3 µM) | Macrophage reduction of intracellular S. aureus burden 24 h post-phagocytosis [5] | LC99.9 [6] [µM] | Reduction of TNFα production induced by UV-inactivated S. aureus [7]
1 | N=C(N)NCCC[C@H](NC(=O)[C@H](Cc1c[nH]c2ccccc12)NC(=O)[C@H](CCC(N)=O)NC(=O)[C@H](Cc1c[nH]c2ccccc12)NC(=O)[C@H](CCCNC(=N)N)NC(=O)[C@@H](N)CCCNC(=N)N)C(=O)NC[C@H](NC(=O)[C@H](CCCNC(=N)N)NC(=O)[C@H](Cc1c[nH]c2ccccc12)NC(=O)[C@H](CCC(N)=O)NC(=O)[C@H](Cc1c[nH]c2ccccc12)NC(=O)[C@H](CCCNC(=N)N)NC(=O)[C@@H](N)CCCNC(=N)N)C(=O)NCCCCCC(=O)N[C@@H](CSSC[C@H](NC(=O)CCCCCNC(=O)[C@H](CNC(=O)[C@H](CCCNC(=N)N)NC(=O)[C@H](Cc1c[nH]c2ccccc12)NC(=O)[C@H](CCC(N)=O)NC(=O)[C@H](Cc1c[nH]c2ccccc12)NC(=O)[C@H](CCCNC(=N)N)NC(=O)[C@@H](N)CCCNC(=N)N)NC(=O)[C@H](CCCNC(=N)N)NC(=O)[C@H](Cc1c[nH]c2ccccc12)NC(=O)[C@H](CCC(N)=O)NC(=O)[C@H](Cc1c[nH]c2ccccc12)NC(=O)[C@H](CCCNC(=N)N)NC(=O)[C@@H](N)CCCNC(=N)N)C(N)=O)C(N)=O [LBT-1] (I: H-RRWQWR[Dap][Ahx]C-NH2 / II: H-RRWQWR[Dap][Ahx]C-NH2 / III: H-RRWQWR / IV: H-RRWQWR; amide I:7-III:C, II:7-IV:C; disulfide I:9-II:9; N-terminus and C-terminus assumed) | effectively neutralize | 15 | 15 | 15 | 7.5 to 15 | 7.5 | 15 | significantly increasing the number of networks | 2 | declined | significantly enhanced | 0.47 | not observed
2 | N=C(N)NCCC[C@H](NC(=O)[C@H](Cc1c[nH]c2ccccc12)NC(=O)[C@H](CCC(N)=O)NC(=O)[C@H](Cc1c[nH]c2ccccc12)NC(=O)[C@H](CCCNC(=N)N)NC(=O)[C@@H](N)CCCNC(=N)N)C(=O)NCCCC[C@H](NC(=O)[C@H](CCCNC(=N)N)NC(=O)[C@H](Cc1c[nH]c2ccccc12)NC(=O)[C@H](CCC(N)=O)NC(=O)[C@H](Cc1c[nH]c2ccccc12)NC(=O)[C@H](CCCNC(=N)N)NC(=O)[C@@H](N)CCCNC(=N)N)C(=O)NCCCCCC(=O)N[C@@H](CSSC[C@H](NC(=O)CCCCCNC(=O)[C@H](CCCCNC(=O)[C@H](CCCNC(=N)N)NC(=O)[C@H](Cc1c[nH]c2ccccc12)NC(=O)[C@H](CCC(N)=O)NC(=O)[C@H](Cc1c[nH]c2ccccc12)NC(=O)[C@H](CCCNC(=N)N)NC(=O)[C@@H](N)CCCNC(=N)N)NC(=O)[C@H](CCCNC(=N)N)NC(=O)[C@H](Cc1c[nH]c2ccccc12)NC(=O)[C@H](CCC(N)=O)NC(=O)[C@H](Cc1c[nH]c2ccccc12)NC(=O)[C@H](CCCNC(=N)N)NC(=O)[C@@H](N)CCCNC(=N)N)C(N)=O)C(N)=O [LBT] (I: H-RRWQWRK[Ahx]C-NH2 / II: H-RRWQWRK[Ahx]C-NH2 / III: H-RRWQWR / IV: H-RRWQWR; amide I:7-III:C, II:7-IV:C; disulfide I:9-II:9; N-terminus and C-terminus assumed) | effectively neutralize |  | 30 | 30 |  | 15 | 30 | enhanced tube formation |  |  | significantly enhanced | 0.47 | not observed
